What is called IC50 is the midpoint of a concentration-inhibition curve. A low value points to greater potency in that assay.

One assay concerns the target T1, AmpC (PAE) (Pseudomonas aeruginosa, UniProt P24735).
T1 construct: made in house; host or cells: E. coli expression vector
Description: biochemical. Further details: species or system P. aeruginosa. Here is the method: (§1) Method 1: β-lactamase Inhibitory Activity, Determination of IC50 (Table 1)
(§2) Enzyme activity was monitored by spectrophotometric measurement of nitrocefin (NCF—TOKU-E, N005) hydrolysis at 485 nm, at room temperature and in assay buffer A: 100 mM Phosphate pH7, 2% glycerol and 0.1 mg/mL Bovine serum albumin (Sigma, B4287). Enzymes were cloned in E. coli expression vector, expressed and purified in house using classical procedures. To a transparent polystyrene plate (Corning, 3628) were added in each well 5 μL DMSO or inhibitor dilutions in DMSO and 80 μL enzyme in buffer A. Plates were immediately read at 485 nm in a microplate spectrophotometer (BioTek, PowerWave HT) to enable background subtraction. After 30 min of pre-incubation at room temperature, 15 μL of NCF (200 μM final) were finally added in each well. Final enzyme concentrations were 0.1 nM (TEM-1), 0.075 nM (SHV-1), 0.4 nM (CTX-M-15), 1 nM (KPC-2), 0.2 nM (P99 AmpC), 0.2 nM (CMY-37), 0.4 nM (AmpC P. aeruginosa), 0.2 nM (OXA-1), 1.2 nM (OXA-11), 0.4 nM (OXA-15) and 0.3 nM (OXA-48). After 20 min incubation at room temperature, plates were once again read at 485 nm. Enzyme activity was obtained by subtracting the final signal by the background, and was converted to enzyme inhibition using non inhibited wells. IC50 curves were fitted to a classical Langmuir equilibrium model with Hill slope using XLFIT (IDBS).

In assay [1] the test system is E. coli 131119. The assay can be described thus: microbe, parasite or virus in culture. It counts as cell-based. The following applies: Escherichia coli, 131119, read-out: MIC compounds of the invention alone. Here is the method: (§3) Compounds of the present invention were assessed against genotyped bacterial strains alone or in combination with the β-lactam ceftazidime (CAZ). […] Briefly, compounds alone according to the invention were prepared in DMSO and spotted (2 μL each) on sterile polystyrene plates (Corning, 3788). […] Log phase bacterial suspensions were adjusted to a final density of 5×10^5 cfu/mL in cation-adjusted Mueller-Hinton broth (Becton-Dickinson) and added to each well (98 μL). Microplates were incubated for 16-20 h at 35° C. in ambient air. The MIC of the compounds was defined as the lowest concentration of said compounds that prevented bacterial growth as read by visual inspection.

The test system of a further assay is E. coli UFR18. Description: MIC of ceftazidime alone and in combination with compounds (synergy), broth microdilution. Conditions: MIC of ceftazidime with compound fixed at 4 μg/mL; strain UFR18 (CTX-M-15, OXA-204). It counts as cell-based.
For the next assay, the system named is E. coli UFR32. The assay is described as above. Conditions: MIC of ceftazidime with compound fixed at 4 μg/mL; strain UFR32 (TEM-1, VEB-1, OXA-10). It counts as cell-based.
The test system of a further assay is K. pneumoniae UFR24. It counts as cell-based. The following applies: MIC of ceftazidime with compound fixed at 4 μg/mL; strain UFR24 (TEM-1, SHV-2, SHV-11, OXA-1, OXA-48, OXA-47).
The subject of another assay is E. coli UFR74. Description: MIC of ceftazidime alone and in combination with compounds (synergy), broth microdilution. Conditions: MIC of ceftazidime with compound fixed at 4 μg/mL; strain UFR74 (SHV-1, DHA-1). It counts as cell-based. Here is the method:
as §3
In general terms: Dilution methods test growth across graded concentrations, often in twofold steps.

Assay [2] has as its system E. coli 131119. The assay is described as above. The following applies: MIC of ceftazidime with compound fixed at 4 μg/mL; strain 131119 (TEM-1, OXA-48). In kind it is cell-based. Here is the method: as §3
Another assay has as its system K. pneumoniae BAA-1898. The description is as above. It counts as cell-based. Conditions: MIC of ceftazidime with compound fixed at 4 μg/mL; strain BAA-1898 (TEM-1, SHV-11, SHV-12, KPC-2). Here is the method:
as §3

In a further assay the test system is P. aeruginosa CIP105250. The description is as above. Conditions: MIC of ceftazidime with compound fixed at 4 μg/mL; strain CIP105250 (OXA-15). It counts as cell-based. How it is done:
as §3

The test system of another assay is P. aeruginosa CIP107051. The assay is described as above. In kind it is cell-based. The following applies: MIC of ceftazidime with compound fixed at 4 μg/mL; strain CIP107051 (TEM-24). Here is the method: as §3
Another assay deals with K. pneumoniae UFR77. The description is as above. Conditions: MIC of ceftazidime with compound fixed at 4 μg/mL; strain UFR77 (CMY-2). In kind it is cell-based. Here is the method: as §3
A further assay has as its system E. coli RGN238. Described as above. In kind it is cell-based. The following applies: MIC of ceftazidime with compound fixed at 4 μg/mL; strain RGN238 (OXA-1). Here is the method:
as §3

The next assay has as its system K. pneumoniae 6299. The assay is described as above. In kind it is cell-based. Conditions: MIC of ceftazidime with compound fixed at 4 μg/mL; strain 6299 (TEM-1, SHV-11, OXA-163). Here is the method:
as §3

A further assay concerns the target T2, AmpC (P99) (Enterobacter cloacae, UniProt P05364).
T2 construct: made in house; host or cells: E. coli expression vector
Description: biochemical. Here is the method: as §1, §2

Another assay deals with T3, OXA-15 (Pseudomonas aeruginosa, UniProt Q51574).
T3 construct: made in house; host or cells: E. coli expression vector
T3 sequence (Q51574 22-275): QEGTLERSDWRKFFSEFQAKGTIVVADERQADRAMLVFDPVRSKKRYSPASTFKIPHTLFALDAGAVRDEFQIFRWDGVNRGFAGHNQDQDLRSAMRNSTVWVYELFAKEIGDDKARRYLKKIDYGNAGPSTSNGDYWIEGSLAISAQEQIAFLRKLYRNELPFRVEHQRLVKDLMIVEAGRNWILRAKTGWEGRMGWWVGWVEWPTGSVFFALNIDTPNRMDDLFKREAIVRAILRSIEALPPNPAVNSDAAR
The assay can be described thus: biochemical. How it is done:
as §1, §2

Another assay deals with T4, TEM-1 (Escherichia coli, UniProt P62593).
T4 construct: made in house; host or cells: E. coli expression vector
T4 sequence (P62593 24-286 limits assumed): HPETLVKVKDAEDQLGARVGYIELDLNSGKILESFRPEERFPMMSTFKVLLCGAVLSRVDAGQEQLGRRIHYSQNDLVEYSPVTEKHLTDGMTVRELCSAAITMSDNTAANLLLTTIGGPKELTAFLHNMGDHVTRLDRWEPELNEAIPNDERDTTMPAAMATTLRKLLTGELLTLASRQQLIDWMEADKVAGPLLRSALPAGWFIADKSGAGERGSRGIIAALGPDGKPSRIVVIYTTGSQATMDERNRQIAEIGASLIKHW
The assay can be described thus: β-lactamase inhibitory activity, IC50 (nitrocefin hydrolysis). Conditions: class (A); 30 min pre-incubation; NCF 200 μM. In kind it is biochemical. Here is the method:
as §1, §2

Another assay has as its target T5, OXA-48 (Klebsiella pneumoniae, UniProt Q6XEC0).
T5 construct: made in house; host or cells: E. coli expression vector
The description is as above. In kind it is biochemical. Here is the method: as §1, §2

The target in another assay is T6, OXA-11 (Pseudomonas aeruginosa, UniProt Q06778).
T6 construct: made in house; host or cells: E. coli expression vector
T6 sequence (Q06778 21-266): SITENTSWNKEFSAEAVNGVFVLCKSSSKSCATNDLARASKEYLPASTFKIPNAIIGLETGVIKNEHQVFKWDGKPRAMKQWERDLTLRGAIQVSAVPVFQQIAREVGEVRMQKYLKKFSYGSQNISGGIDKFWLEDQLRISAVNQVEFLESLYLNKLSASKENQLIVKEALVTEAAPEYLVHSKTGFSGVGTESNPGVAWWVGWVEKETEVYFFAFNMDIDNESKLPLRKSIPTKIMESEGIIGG
The assay is described as above. In kind it is biochemical. How it is done:
as §1, §2

The next assay has as its target T7, CTX-M-15 (Escherichia coli, UniProt Q9EXV5).
T7 construct: made in house; host or cells: E. coli expression vector
The description is as above. In kind it is biochemical. Here is the method:
as §1, §2

The next assay has as its target T8, OXA-1 (Escherichia coli, UniProt P13661).
T8 construct: made in house; host or cells: E. coli expression vector
The assay is described as above. In kind it is biochemical. How it is done: as §1, §2

The target of another assay is T9, SHV-1 (Klebsiella pneumoniae, UniProt P0AD64).
T9 construct: made in house; host or cells: E. coli expression vector
T9 sequence (P0AD64 22-286): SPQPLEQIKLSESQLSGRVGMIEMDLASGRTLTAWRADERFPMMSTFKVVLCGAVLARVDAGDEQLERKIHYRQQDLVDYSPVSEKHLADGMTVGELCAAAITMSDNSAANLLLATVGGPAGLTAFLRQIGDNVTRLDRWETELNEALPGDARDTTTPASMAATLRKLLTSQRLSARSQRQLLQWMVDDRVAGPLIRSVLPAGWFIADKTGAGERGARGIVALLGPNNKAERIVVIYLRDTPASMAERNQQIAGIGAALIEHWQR
The assay is described as above. In kind it is biochemical. Here is the method: as §1, §2

A further assay concerns the target T10, KPC-2 (Klebsiella pneumoniae, UniProt Q9F663).
T10 construct: made in house; host or cells: E. coli expression vector
The assay is described as above. In kind it is biochemical. Here is the method:
as §1, §2

Another assay has as its system K. pneumoniae UFR68. It counts as cell-based. The following applies: MIC of ceftazidime with compound fixed at 4 μg/mL; strain UFR68 (TEM-1, SHV-11, CTX-M-15, KPC-3).

Structures can show the parent of a compound that is named as a salt.

T8 sequence (P13661 26-276): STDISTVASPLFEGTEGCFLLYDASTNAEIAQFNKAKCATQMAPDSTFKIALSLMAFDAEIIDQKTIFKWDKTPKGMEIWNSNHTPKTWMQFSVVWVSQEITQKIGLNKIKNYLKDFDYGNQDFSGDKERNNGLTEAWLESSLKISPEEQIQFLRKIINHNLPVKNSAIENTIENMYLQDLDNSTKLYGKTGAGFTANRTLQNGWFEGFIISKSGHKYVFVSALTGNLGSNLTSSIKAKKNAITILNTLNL
T1 sequence (P24735 27-397): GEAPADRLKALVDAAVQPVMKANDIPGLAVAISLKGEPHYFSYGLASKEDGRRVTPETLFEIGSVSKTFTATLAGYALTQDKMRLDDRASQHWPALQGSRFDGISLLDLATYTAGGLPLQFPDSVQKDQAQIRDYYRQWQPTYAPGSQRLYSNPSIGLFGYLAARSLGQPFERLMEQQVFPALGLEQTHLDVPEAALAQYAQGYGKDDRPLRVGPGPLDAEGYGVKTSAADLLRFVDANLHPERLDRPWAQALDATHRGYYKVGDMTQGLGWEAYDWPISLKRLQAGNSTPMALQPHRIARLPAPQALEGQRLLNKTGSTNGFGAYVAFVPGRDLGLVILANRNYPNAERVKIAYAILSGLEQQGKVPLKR
T5 sequence (Q6XEC0 23-265 limits assumed): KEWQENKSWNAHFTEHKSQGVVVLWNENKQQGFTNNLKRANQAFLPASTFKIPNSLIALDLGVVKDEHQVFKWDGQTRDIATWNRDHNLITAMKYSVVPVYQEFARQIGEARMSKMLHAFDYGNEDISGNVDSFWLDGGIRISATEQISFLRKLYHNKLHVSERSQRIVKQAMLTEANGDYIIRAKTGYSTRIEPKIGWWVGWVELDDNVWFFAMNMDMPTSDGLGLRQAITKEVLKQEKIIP
T2 sequence (P05364 21-381): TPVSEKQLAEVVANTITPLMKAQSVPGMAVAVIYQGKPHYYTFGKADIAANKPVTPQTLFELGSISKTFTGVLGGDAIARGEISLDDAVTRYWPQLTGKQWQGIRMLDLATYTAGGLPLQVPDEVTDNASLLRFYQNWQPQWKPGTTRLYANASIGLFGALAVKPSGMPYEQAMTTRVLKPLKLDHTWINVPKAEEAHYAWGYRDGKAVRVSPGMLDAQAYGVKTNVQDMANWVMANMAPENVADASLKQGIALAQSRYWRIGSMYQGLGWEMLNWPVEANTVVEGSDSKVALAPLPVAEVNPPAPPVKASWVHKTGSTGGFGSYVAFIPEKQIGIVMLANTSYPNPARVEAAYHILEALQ
T7 sequence (Q9EXV5 entry or part of it): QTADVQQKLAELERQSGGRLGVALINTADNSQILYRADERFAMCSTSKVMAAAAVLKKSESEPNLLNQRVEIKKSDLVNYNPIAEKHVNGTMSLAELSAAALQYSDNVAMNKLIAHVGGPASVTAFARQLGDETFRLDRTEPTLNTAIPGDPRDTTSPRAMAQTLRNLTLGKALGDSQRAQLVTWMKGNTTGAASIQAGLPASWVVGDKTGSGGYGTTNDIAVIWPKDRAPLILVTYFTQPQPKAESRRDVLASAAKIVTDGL
T10 sequence (Q9F663 25-293 limits assumed): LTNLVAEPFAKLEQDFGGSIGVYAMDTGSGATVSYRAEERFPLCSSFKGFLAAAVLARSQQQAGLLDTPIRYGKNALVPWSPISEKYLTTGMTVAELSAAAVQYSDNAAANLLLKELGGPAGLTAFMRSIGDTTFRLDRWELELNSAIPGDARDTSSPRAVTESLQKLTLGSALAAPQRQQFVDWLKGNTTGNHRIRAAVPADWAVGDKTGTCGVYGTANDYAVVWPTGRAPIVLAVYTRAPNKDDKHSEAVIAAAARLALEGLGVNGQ

In the case of `CNC(=O)CON=C1C[C@@H](C(N)=O)N2C[C@@H]1N(OS(=O)(=O)[O-])C2=O.[Na+]` (mixture of isomers) [Example 2, sodium [(2S,5S)-2-carbamoyl-4-[2-(methylamino)-2-oxo-ethoxy]imino-7-oxo-1,6-diazabicyclo[3.2.1]octan-6-yl] sulfate], the half-inhibitory concentration (IC50) against AmpC (PAE) was found to be 0.11 µM; against AmpC (P99), 0.0032 µM; against OXA-15, 0.84 nM; against TEM-1, 1.7 nM; on OXA-48, 3.5 nM; on OXA-11, 6.8 nM. Besides, the IC50 was determined as 0.76 nM against CTX-M-15, 6.1 nM at OXA-1, 0.74 nM against SHV-1 and 3.9 nM on KPC-2. Further, in the assay with E. coli 131119 [1], the MIC was determined as 8 µg/mL. The “MIC, combination of CAZ and compounds of the invention at 4 μg/mL” value (“MIC, combination” below) was 1 µg/mL with E. coli UFR18; 0.5 µg/mL with E. coli UFR32; 2 µg/mL with K. pneumoniae UFR24; 0.5 µg/mL in the assay with E. coli UFR74; not above 0.25 µg/mL in the assay with E. coli 131119 [2]; 64 µg/mL in the assay with K. pneumoniae BAA-1898. Further, the “MIC, combination” value is 64 µg/mL in the assay with P. aeruginosa CIP105250; 16 µg/mL in the assay with P. aeruginosa CIP107051; 32 µg/mL with K. pneumoniae UFR77; not above 0.25 µg/mL with E. coli RGN238; 2 µg/mL in the assay with K. pneumoniae 6299; 64 µg/mL in the assay on K. pneumoniae UFR68.
As for `NC[C@@H]1CC(=NOCC(N)=O)[C@@H]2CN1C(=O)N2OS(=O)(=O)O` (mixture of isomers) [Example 5, sodium and 2,2,2-trifluroacetate [(2S,5S)-4-(2-amino-2-oxo-ethoxy)imino-2-(azaniumylmethyl)-7-oxo-1,6-diazabicyclo[3.2.1]octan-6-yl] sulfate], the 50% inhibitory concentration (IC50) against AmpC (PAE) worked out at 12 µM; on AmpC (P99) it was 11 µM; against OXA-15 it was 8 nM; at TEM-1, 110 nM; against OXA-48, 180 nM; at OXA-11, 430 nM. The IC50 at CTX-M-15 is 130 nM; against OXA-1 it was 370 nM; against SHV-1, 64 nM; on KPC-2, 1800 nM. Besides, in the assay on E. coli 131119 [1], the MIC is more than 32 µg/mL. Besides, the “MIC, combination” value in the assay on E. coli UFR18 is less than 0.25 µg/mL; in the assay on E. coli UFR32, not above 0.25 µg/mL; with K. pneumoniae UFR24 it was 1 µg/mL; with E. coli UFR74, 1 µg/mL; in the assay with E. coli 131119 [2] it was less than 0.25 µg/mL; in the assay with K. pneumoniae BAA-1898, 0.5 µg/mL. Besides, the “MIC, combination” value was not above 0.25 µg/mL in the assay on P. aeruginosa CIP105250; less than 0.25 µg/mL with P. aeruginosa CIP107051; 2 µg/mL with K. pneumoniae UFR77; not above 0.25 µg/mL in the assay with E. coli RGN238; 0.25 µg/mL in the assay on K. pneumoniae 6299; 1 µg/mL with K. pneumoniae UFR68.
In the case of `NC[C@@H]1CC(=O)[C@@H]2CN1C(=O)N2OS(=O)(=O)O` [Example 6, 2,2,2-trifluroacetate and sodium [(2S,5S)-2-(azaniumylmethyl)-4,7-dioxo-1,6-diazabicyclo[3.2.1]octan-6-yl] sulfate], the 50% inhibitory concentration (IC50) against AmpC (PAE) turned out to be 38 µM; against AmpC (P99) it was 6.4 µM; against OXA-15, 68 nM; at TEM-1, 280 nM; against OXA-48, 840 nM; against OXA-11 it was 1600 nM. Also, the IC50 turned out to be 510 nM against CTX-M-15, 1200 nM at OXA-1, 340 nM at SHV-1 and 5100 nM against KPC-2. Moreover, the MIC in the assay on E. coli 131119 [1] was determined as 2 µg/mL. The “MIC, combination” value in the assay with E. coli UFR18 is not above 0.25 µg/mL; in the assay with E. coli UFR32, less than 0.25 µg/mL; in the assay on K. pneumoniae UFR24 it was 4 µg/mL; in the assay on E. coli UFR74 it was 0.5 µg/mL; in the assay with E. coli 131119 [2], not above 0.25 µg/mL; in the assay on K. pneumoniae BAA-1898 it was 1 µg/mL. The “MIC, combination” value was 2 µg/mL in the assay with P. aeruginosa CIP105250; 0.125 µg/mL in the assay on P. aeruginosa CIP107051; 2 µg/mL in the assay with K. pneumoniae UFR77; not above 0.25 µg/mL with E. coli RGN238; 2 µg/mL in the assay with K. pneumoniae 6299; 1 µg/mL in the assay with K. pneumoniae UFR68.

The values are drawn from patent US10570131B2, “Heterocyclic compounds and their use in preventing or treating bacterial infections” (MUTABILIS, priority 2015, dated 2020).
